Results reported in PubChem BioAssay AID720715 (Broad Institute, 2013).
Records with an inconclusive call do not appear. Activity calls are given as the source filed them. No rule for the calls is given here.

Test system: not listed separately
Experiment: HEK293 cell cytotoxicity, dose response, cytotoxicity control, plate reader, dry powder, set 2 (AID 720715)
Conditions: HEK293 cytotoxicity, plate reader; at 12 µM (top of the series)

**Q.** Which activity change, negative = cytotoxicity does the source give for `O=C(c1nnsc1S(=O)c1ccc(Cl)cc1)N1CCOCC1` (stereo unspecified) here?
**A.** The activity change, negative = cytotoxicity was 0.296% (inactive).

Same assay, conditions: HEK293 cytotoxicity, plate reader; at 26 µM (top of the series)

**Q.** Which activity change, negative = cytotoxicity does the source give for `Cc1cc(N2CCCC2=O)cc(C)c1S(=O)(=O)NCCOc1ccc(C(C)(C)C)cc1` here?
**A.** The activity change, negative = cytotoxicity was 57.1% (inactive).

**Q.** With `COc1cc2ncnc(N[C@H](C)c3ccccc3)c2cc1OC` as the compound, how does the activity change, negative = cytotoxicity read?
**A.** The activity change, negative = cytotoxicity was 70.1% (inactive).

**Q.** For `O=c1c2ccccc2nc2n1C(CSCc1ccc(Cl)cc1Cl)CS2` (stereo unspecified), which activity change, negative = cytotoxicity is on record?
**A.** The activity change, negative = cytotoxicity was -9.98% (inactive).

**Q.** For `Cc1ccc2cc(CN(CC3CCCO3)C(=O)NC3CCCCC3)c(=O)[nH]c2c1C` (stereo unspecified), which activity change, negative = cytotoxicity is on record?
**A.** Its activity change, negative = cytotoxicity is 5.24% (inactive).

**Q.** With `CC(C)[C@H](NC(=O)OC(C)(C)C)c1nnc(S(=O)(=O)Cc2c(F)cccc2Cl)o1` as the compound, how does the activity change, negative = cytotoxicity read?
**A.** The activity change, negative = cytotoxicity was -61.3% (inactive).

**Q.** For `COc1ccc(NC(=O)c2nc(S(=O)(=O)Cc3cccc(C)c3)ncc2Cl)c(OC)c1`, which activity change, negative = cytotoxicity is on record?
**A.** Its activity change, negative = cytotoxicity is -19.6% (inactive).

**Q.** With `Fc1ccc(-n2nnnc2-c2cnc(-c3cccs3)nc2C(F)(F)F)cc1` as the compound, how does the activity change, negative = cytotoxicity read?
**A.** The activity change, negative = cytotoxicity was -31.8% (inactive).

**Q.** With `CCCc1nnc(NC(=O)c2nc(S(=O)(=O)Cc3ccc(C)cc3)ncc2Cl)s1` as the compound, how does the activity change, negative = cytotoxicity read?
**A.** Its activity change, negative = cytotoxicity is -2.77% (inactive).

**Q.** With `Cc1cc2c(cc(C(=O)N3CCC(C(=O)NC4CCCC4)CC3)n2Cc2c(F)cccc2Cl)o1` as the compound, how does the activity change, negative = cytotoxicity read?
**A.** Its activity change, negative = cytotoxicity is -24.5% (inactive).

**Q.** For `Nc1nonc1C(=O)NCCNCc1cc(Br)ccc1OCc1ccc(F)cc1`, which activity change, negative = cytotoxicity is on record?
**A.** The activity change, negative = cytotoxicity was -59.1% (inactive).

**Q.** For `CC(=O)Nc1cccc(NC(=O)CSc2ncc(-c3ccc(Cl)cc3)n2Cc2ccco2)c1`, which activity change, negative = cytotoxicity is on record?
**A.** The activity change, negative = cytotoxicity was -4.47% (inactive).

**Q.** Which activity change, negative = cytotoxicity does the source give for `CC(=O)N1CCN(C(=O)CCc2cc(C(C)(C)C)c(O)c(C(C)(C)C)c2)CC1` here?
**A.** Its activity change, negative = cytotoxicity is -13.7% (inactive).

**Q.** With `CCCOc1ccccc1C1CC(=O)Nc2cc3c(cc21)OCO3` (stereo unspecified) as the compound, how does the activity change, negative = cytotoxicity read?
**A.** Its activity change, negative = cytotoxicity is -19.2% (inactive).

**Q.** For `COc1ccc(NS(=O)(=O)c2ccc(C(=O)N3CCCCCC3)cc2)cc1`, which activity change, negative = cytotoxicity is on record?
**A.** The activity change, negative = cytotoxicity was -33.4% (inactive).

**Q.** With `CCOC(=O)C1(Cc2ccc(Cl)cc2)CCN(C(C)Cc2ccc(O)c(OC)c2)CC1` (stereo unspecified) as the compound, how does the activity change, negative = cytotoxicity read?
**A.** Its activity change, negative = cytotoxicity is -31.7% (inactive).

**Q.** Which activity change, negative = cytotoxicity does the source give for `CN(CC(=O)Nc1cccc(S(=O)(=O)N2CCOCC2)c1)CC(=O)Nc1ccc(Cl)c(C(F)(F)F)c1` here?
**A.** The activity change, negative = cytotoxicity was -50% (inactive).

**Q.** With `COc1ccccc1N1CCN(c2ncc(C(=O)N3CCN(c4cccc(Cl)c4)CC3)c3ccccc23)CC1` as the compound, how does the activity change, negative = cytotoxicity read?
**A.** Its activity change, negative = cytotoxicity is -7.71% (inactive).

Test system: HEK293 cytotoxicity, plate reader
Experiment: as above
Conditions: not given

**Q.** With `COc1ccc(Nc2nc(N3CCCCC3)c3ccccc3n2)cc1` as the compound, how does the AC50 read?
**A.** Its AC50 is 23.8 µM.

**Q.** For `CCOC(=O)C1CCN(C(=O)c2ccc(OCC(=O)Nc3cccc(C(F)(F)F)c3)c(OC)c2)CC1`, which AC50 is on record?
**A.** The AC50 was 5.01 µM.

**Q.** For `CCOC(=O)c1ccc(NC(=O)Cn2ncc(Cl)c(Cl)c2=O)cc1`, which AC50 is on record?
**A.** The AC50 was 15.1 µM.

**Q.** With `CN(C)c1nc(-c2ccccn2)nnc1-c1ccccc1` as the compound, how does the AC50 read?
**A.** Its AC50 is 5.55 µM.

**Q.** For `CC(C)(C)NC(=O)CSc1nc2ccc(NC(=O)CSc3nnnn3Cc3ccccc3)cc2s1`, which AC50 is on record?
**A.** The AC50 was 15.9 µM.

**Q.** Which AC50 does the source give for `COc1cc(CN2CCc3ccccc3C2)ccc1O` here?
**A.** The AC50 was 14.7 µM.

**Q.** For `O=C1CSc2ccc(C(=O)Nc3cccc(S(=O)(=O)Nc4ccc(Br)cc4)c3)cc2N1`, which AC50 is on record?
**A.** Its AC50 is 19.3 µM.

**Q.** For `CN(C(=O)COc1ccccc1C(=O)NCCOc1ccccc1)c1ccccc1`, which AC50 is on record?
**A.** The AC50 was 18.1 µM.
